Measured values from patent US20220257552A1, “METHODS OF PRESCREENING AND TREATING BREAST CANCERS WITH SELECTIVE ANDROGEN RECEPTOR MODULATORS” (priority 2021, published 2022).

Experiments:
BR-0001 tumors = assay: Microarray and AR ChIP-Seq of BR-0001 tumors; type: in vivo, mice
Procedure: Chromatin Immunoprecipitation Assay (ChIP). Proteins were cross-linked by incubation with 1% formaldehyde (final concentration) at 37° C. for 10 min. Tumors were homogenized using a probe hand-held homogenizer. The cells were washed with 1×PBS twice, scraped in 1 mL of PBS containing protease inhibitors ([[…] each of aprotinin, leupeptin, antipain, benzamidine HCl, and pepstatin/mL], 0.2 mM phenylmethylsulfonyl fluoride, and 1 mM sodium vanadate), pelleted, and resuspended in SDS lysis buffer (1% SDS, 10 mM EDTA, 50 mM Tris-HCl [pH 8.1]).
After lysis on ice for 10 min, the cell extract was sonicated (Branson sonifier 250) in a cold room eight times for 10 s each at constant duty cycle, with an output of 3 and with incubation on ice after every sonication. The debris was pelleted at 13,000 rpm for 10 min at 4° C., and the supernatant was diluted 10-fold with ChIP dilution buffer (0.01% SDS, 1.1% Triton X-100, 1.2 mM EDTA, 16.7 mM Tris HCl [pH 8.1], 167 mM NaCl). The proteins were precleared with 50 μL of 1:1 protein A-Sepharose beads in TE. […]
In the gene expression study described above, RNA was isolated from the BR-0001 TNBC tumors and the expression of genes in the entire genome was measured by microarray (Affymetrix, ST2.0 array). […]

MR = target: T1, MR (Rattus norvegicus, UniProt P22199); assay: MR transactivation in HEK-293 cells; type: cell-based
T1 construct: expressed in transfected cells
T1 sequence (P22199 1-981): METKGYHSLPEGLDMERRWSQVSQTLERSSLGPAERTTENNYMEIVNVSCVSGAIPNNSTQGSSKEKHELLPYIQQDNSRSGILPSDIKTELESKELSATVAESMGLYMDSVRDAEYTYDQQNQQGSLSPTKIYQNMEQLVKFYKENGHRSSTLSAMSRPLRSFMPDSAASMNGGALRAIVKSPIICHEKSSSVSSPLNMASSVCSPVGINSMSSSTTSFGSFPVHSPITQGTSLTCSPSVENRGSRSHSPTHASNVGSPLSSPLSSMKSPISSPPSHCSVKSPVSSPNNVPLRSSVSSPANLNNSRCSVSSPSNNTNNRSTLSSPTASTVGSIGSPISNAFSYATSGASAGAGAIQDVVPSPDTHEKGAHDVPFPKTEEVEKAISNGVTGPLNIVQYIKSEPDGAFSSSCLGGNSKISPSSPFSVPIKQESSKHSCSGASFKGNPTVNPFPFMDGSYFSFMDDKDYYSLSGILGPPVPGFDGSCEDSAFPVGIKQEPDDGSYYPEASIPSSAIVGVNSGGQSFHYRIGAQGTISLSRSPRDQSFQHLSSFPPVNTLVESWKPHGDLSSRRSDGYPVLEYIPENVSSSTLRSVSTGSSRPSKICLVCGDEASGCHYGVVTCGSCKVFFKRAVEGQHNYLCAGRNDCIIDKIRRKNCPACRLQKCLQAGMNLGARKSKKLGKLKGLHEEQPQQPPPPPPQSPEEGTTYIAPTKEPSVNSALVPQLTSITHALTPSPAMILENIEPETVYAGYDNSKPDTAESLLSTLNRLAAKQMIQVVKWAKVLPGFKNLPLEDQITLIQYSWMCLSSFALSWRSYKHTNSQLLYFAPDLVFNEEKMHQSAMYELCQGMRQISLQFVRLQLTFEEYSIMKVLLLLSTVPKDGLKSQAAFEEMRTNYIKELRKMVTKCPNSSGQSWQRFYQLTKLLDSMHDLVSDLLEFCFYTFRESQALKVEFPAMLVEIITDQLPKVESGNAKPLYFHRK
Procedure: Rat GR, MR, PR, ER-α and ER-β were individually cloned into a pCR3.1 vector backbone. Sequencing was performed to verify the absence of any mutations. HEK-293 cells were plated at 90,000 cells per well of a 24 well plate in Dulbecco's Minimal Essential Media supplemented with 5% charcoal-stripped FBS. […] Luciferase assays were performed 48 h after transfection. Transcriptional activation values are represented as firefly luciferase normalized to renilla luciferase.

MCF-7-AR tumors = assay: Phospho MAPK array of MCF-7-AR tumors; design: species or system mice; conditions: mouse, in vivo
Procedure: Protein from MCF-7-AR tumors that were treated with vehicle or compound of Formula VIII were extracted and incubated with phospho MAPK array to determine the effect of compound of Formula VIII on phosphorylation of various kinases.

C[C@](O)(COc1ccc(C#N)cc1)C(=O)Nc1ccc(C#N)c(C(F)(F)F)c1 [Formula IX, (S)—N-(4-Cyano-3-(trifluoromethyl)phenyl)-3-(4-cyanophenoxy)-2-hydroxy-2-methylpropanamide]
AR-occupied promoters with the gene up-regulated (BR-0001 tumors; mouse, in vivo): 20%
promoters to which AR was recruited (BR-0001 tumors; −5 kb to +1 kb): 176 promoters

C[C@](O)(COc1ccc(C#N)cc1)C(=O)Nc1ccc(C#N)c(Cl)c1 [Formula VIII, (S)—N-(3-chloro-4-cyanophenyl)-3-(4-cyanophenoxy)-2-hydroxy-2-methylpropanamide]
MR-mediated transactivation, agonist mode (MR; all tested concentrations): did not induce
aldosterone-induced MR-mediated transactivation, antagonist mode (MR; co-incubation): failed to alter
JNK phosphorylation (MCF-7-AR tumors): upregulated
